# Assays:
# [1] = biological target: Histone deacetylase (HDAC1 and HDAC2) (Homo sapiens, UniProt Q13547+Q92769); experiment: Inhibition of HDAC1/2 in human HeLa cell nuclear extract using color de Lys as substrate preincubated for 5 mins followed by substrate addition measured after 30 min by microtiter plate reader analysis; assay type: cell-based
# [2] = Antiproliferative activity against human KG1 cells after 48 hrs by MTT assay; assay type: functional, cell-based; conditions: KG-1, 48 h
# MDA-MB-231 = experiment: Antiproliferative activity against human MDA-MB-231 cells after 48 hrs by MTT assay; assay type: functional, cell-based; conditions: MDA-MB-231, 48 h
# [3] = Antiproliferative activity against human PC3 cells after 48 hrs by MTT assay; assay type: functional, cell-based; conditions: PC-3, 48 h
# Histone deacetylase 8 = biological target: T1, Histone deacetylase 8 (Homo sapiens, UniProt Q9BY41); experiment: Inhibition of C-terminal His-tagged human recombinant HDAC8 expressed in Sf9 cells after 30 mins by microtiter plate reader analysis
# T1 sequence (Q9BY41 whole entry): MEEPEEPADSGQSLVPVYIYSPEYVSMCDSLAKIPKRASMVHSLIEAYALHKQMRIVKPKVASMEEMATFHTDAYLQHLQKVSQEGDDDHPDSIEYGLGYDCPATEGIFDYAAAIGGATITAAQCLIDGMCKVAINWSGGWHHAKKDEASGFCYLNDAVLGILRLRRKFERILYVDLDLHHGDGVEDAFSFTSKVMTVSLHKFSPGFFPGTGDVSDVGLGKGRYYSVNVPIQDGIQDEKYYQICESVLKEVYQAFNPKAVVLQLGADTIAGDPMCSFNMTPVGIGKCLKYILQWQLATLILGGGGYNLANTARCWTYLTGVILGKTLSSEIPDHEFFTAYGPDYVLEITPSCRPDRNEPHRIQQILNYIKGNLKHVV
# Histone deacetylase 2 = Histone deacetylase 2 (Homo sapiens, UniProt Q92769); experiment: Inhibition of C-terminal GST-tagged human recombinant HDAC2 expressed in Sf9 cells after 30 mins by microtiter plate reader analysis; assay type: cell-based
# Chain of Histone deacetylase 2 (Q92769 whole entry): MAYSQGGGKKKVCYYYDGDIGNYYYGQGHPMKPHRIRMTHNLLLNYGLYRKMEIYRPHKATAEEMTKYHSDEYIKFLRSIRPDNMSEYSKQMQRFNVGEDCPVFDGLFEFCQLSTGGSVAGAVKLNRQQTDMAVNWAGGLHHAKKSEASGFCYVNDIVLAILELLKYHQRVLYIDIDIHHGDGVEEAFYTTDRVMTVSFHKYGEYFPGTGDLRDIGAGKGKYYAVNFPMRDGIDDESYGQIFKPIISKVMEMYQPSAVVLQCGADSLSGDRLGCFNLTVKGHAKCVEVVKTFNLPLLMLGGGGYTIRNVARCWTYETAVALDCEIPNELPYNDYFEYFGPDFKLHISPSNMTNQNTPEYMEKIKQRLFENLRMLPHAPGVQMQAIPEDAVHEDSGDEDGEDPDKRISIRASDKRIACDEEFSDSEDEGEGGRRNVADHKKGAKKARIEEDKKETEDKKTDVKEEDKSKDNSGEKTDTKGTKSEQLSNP
IC50 [1],IC50 (MDA-MB-231),IC50 (Histone deacetylase 8),IC50 (Histone deacetylase 2),Structure (SMILES),IC50 [2],IC50 [3]
157 nM,,,,O=C(CCCCCCNc1nc(N2CCOCC2)nc2[nH]cnc12)NO,,
130 nM,,,,CCCCn1cnc2c(NCCCCCC(=O)NO)nc(N3CCOCC3)nc21,,
,3300 nM,3130 nM,,CC(C)n1cnc2c(NCCCCCCC(=O)NO)nc(N)nc21,3430 nM,6860 nM
27 nM,1650 nM,2010 nM,165 nM,CC(C)Cn1cnc2c(NCCCCCCC(=O)NO)nc(Cl)nc21,860 nM,1380 nM
26 nM,1120 nM,1440 nM,56 nM,O=C(CCCCCNc1nc(Cl)nc2c1ncn2Cc1ccccc1)NO,320 nM,2830 nM
